Measured values: US20260265252A1, “SOLID STATE FORMS OF IMIPRIDONE DERIVATIVE” (CHIMERIX, INC., priority 2024, published 2026)
Structures can show the parent of a compound that is named as a salt.

Tests used:
[1] = Relative humidity (RH) experiments / exposure to moisture, solid form change; format: physicochemical; details: for form change: exposure to moisture / relative humidity (RH) experiments
From the text: The three batches of Compound I (ONC206·2HCl) manufactured to date are described below. The first two processes consistently produced Form 1 (i.e., desolvated anhydrous form, Form 1).

[2] = Dynamic vapor sorption (DVS) water uptake; format: physicochemical; details: for total water uptake / water uptake: DVS; for hygroscopicity: characterised by DVS water uptake
From the text: Dynamic Vapor Sorption (DVS)
Vapor sorption data were collected on a Surface Measurement System DVS Intrinsic instrument. Samples were not dried prior to analysis. Sorption and desorption data were collected over the stated range from at 10% RH increments under a nitrogen purge. The equilibrium criterion used […]

[3] = Solid form stability at ambient conditions; format: physicochemical
[4] = tested on: diffuse midline glioma, H3 K27M-mutant (DMG H3K27M); details: patients with diffuse midline glioma; cited from earlier work

total water uptake [2] | total water uptake ([2]; moles of water) | hygroscopicity [2] | water uptake ([2]; relative humidity of up to 95%) | Structure (SMILES) | further results
2.5% | ~ 0.7 moles | hygroscopic |  | O=C1C2=C(CCN(Cc3ccccc3)C2)N2CCN=C2N1Cc1ccc(F)cc1F [Compound I Form 2, 7-benzyl-4-(2,4-difluorobenzyl)-2,4,6,7,8,9-hexahydroimidazo[1,2-a]pyrido[3,4-e]pyrimidin-5(1H)-one] | form change [1]: no form change was observed; water uptake ([2]; relative humidity of 5% to 25%): 1.8%; water uptake ([2]; relative humidity of 25% to 95%): 0.6%
7.5% | ~ 2.2 moles | hygroscopic |  | O=C1C2=C(CCN(Cc3ccccc3)C2)N2CCN=C2N1Cc1ccc(F)cc1F [Compound I Form 1, 7-benzyl-4-(2,4-difluorobenzyl)-2,4,6,7,8,9-hexahydroimidazo[1,2-a]pyrido[3,4-e]pyrimidin-5(1H)-one] | form change [1]: tends to convert into Form 2; hygroscopicity ([1]; statement in Example 1): hygroscopic; water uptake ([2]; relative humidity of 65% to 85%): 6.7%; water uptake ([2]; relative humidity of 85% to 95%): 0.3%; water uptake ([2]; relative humidity of up to 65%): 0.5%
2.5% | 1.3 mol | slightly hygroscopic |  | O=C1C2=C(CCN(Cc3ccccc3)C2)N2CCN=C2N1Cc1ccc(F)cc1F [Compound I Sulfate Form A, 7-benzyl-4-(2,4-difluorobenzyl)-2,4,6,7,8,9-hexahydroimidazo[1,2-a]pyrido[3,4-e]pyrimidin-5(1H)-one] | water uptake ([2]; relative humidity of up to 96%): 2.5%
0.7% | 0.1 mol | slightly hygroscopic | 0.7% | O=C1C2=C(CCN(Cc3ccccc3)C2)N2CCN=C2N1Cc1ccc(F)cc1F [Compound I Fumarate Form A, 7-benzyl-4-(2,4-difluorobenzyl)-2,4,6,7,8,9-hexahydroimidazo[1,2-a]pyrido[3,4-e]pyrimidin-5(1H)-one] | 
 |  |  |  | O=C1C2=C(CCN(Cc3ccccc3)C2)N2CCN=C2N1Cc1ccc(F)cc1F [Compound I Material 14, 7-benzyl-4-(2,4-difluorobenzyl)-2,4,6,7,8,9-hexahydroimidazo[1,2-a]pyrido[3,4-e]pyrimidin-5(1H)-one] | stability of the solid form [3]: metastable
1.3% | 0.4 mol | slightly hygroscopic |  | O=C1C2=C(CCN(Cc3ccccc3)C2)N2CCN=C2N1Cc1ccc(F)cc1F [Compound I Tosylate Form A, 7-benzyl-4-(2,4-difluorobenzyl)-2,4,6,7,8,9-hexahydroimidazo[1,2-a]pyrido[3,4-e]pyrimidin-5(1H)-one] | water uptake ([2]; relative humidity of up to 96%): 1.3%
0.3% | < 0.1 mol | non-hygroscopic | 0.3% | O=C1C2=C(CCN(Cc3ccccc3)C2)N2CCN=C2N1Cc1ccc(F)cc1F [Compound I Form A, 7-benzyl-4-(2,4-difluorobenzyl)-2,4,6,7,8,9-hexahydroimidazo[1,2-a]pyrido[3,4-e]pyrimidin-5(1H)-one] | 
0.3% | < 0.1 mol | non-hygroscopic | 0.3% | O=C1C2=C(CCN(Cc3ccccc3)C2)N2CCN=C2N1Cc1ccc(F)cc1F [Compound I Besylate Form A, 7-benzyl-4-(2,4-difluorobenzyl)-2,4,6,7,8,9-hexahydroimidazo[1,2-a]pyrido[3,4-e]pyrimidin-5(1H)-one] | 
 |  |  |  | Cc1ccccc1CN1C(=O)C2=C(CCN(Cc3ccccc3)C2)N2CCN=C12 [ONC201] | tumor regressions [4]: induced durable tumor regressions
